From US6864068B2, “Antifungal proteins” (Syngenta Limited, priority 1995, dated 2005)

Assays:
Type in all cases: cell-based
F culmorum [1] = experiment: Specific antifungal activity of Rs-AFP2 isoforms in SMF− and SMF+ media; parameters: IC50 SMF− / IC50 SMF+: unit not given here; conditions: for RELATIVE SPECIFIC ACTIVITY (%) IN MEDIUM SMF+ / RELATIVE SPECIFIC ACTIVITY (%) IN MEDIUM SMF−: 1/IC50 of mutant divided by that of yRs-AFP2 x 100, 48 hour incubation, preliminary tests; for RELATIVE SPECIFIC ACTIVITY (%) IN MEDIUM SMF+: SMF with 1 mM CaCl2 and 50 mM KCl; for RELATIVE SPECIFIC ACTIVITY (%) IN MEDIUM SMF−: low ionic strength medium; for IC50 SMF+ / IC50 SMF−: 72 hours growth, triplicate; for IC50 SMF+: high salt medium (1 mM CaCl2, 50 mM KCl)
Protocol: For each isoform, two independent purifications were carried out and the antifungal activity was determined in duplicate using F culmorum as a test fungus in two different media: a low ionic strength medium called SMF-(Terras et al, 1992, J Biol Chem, 267:15301-15309) and the same medium supplemented with 1 mM CaCl2 and 50 mM KCl called SMF+. The presence of salts in the test medium, especially salts with divalent cations, reduces the specific activity of Rs-AFP2. Seed-purified as well as yeast-expressed wild type Rs-AFP2 served as a control in the assays.
The relative specific activity is expressed as the specific activity of the mutant divided by the specific activity of yRs-AFP2 and multiplied by 100. […] The specific activity was measured in medium SMF−and SMF+.
Deviations are given as standard error of the mean (sem) based on the triplicate experiments. In SMF−, the medium without added salts, most of the derivatives show no decrease or only a minor decrease in antifungal activity, while in SMF+, the medium with added salts, there is a significant decrease in antifungal activity for several Rs-AFP2 isoforms.

F culmorum [2] = experiment: Growth inhibition in SMF with varying CaCl2 or KCl (FIG. 7)
Protocol: Their antifungal activity was determined in SMF with increasing Ca^2+ or K^+ concentration and compared with that of plant-derivable wild type Rs-AFP2 (isolated from seed) as well as yeast purified Rs-AFP2. FIG. 7 is a graph of the percentage growth inhibition of F culmorum caused by 10 μg/ml of yeast-purified Rs-AFP2 (SEQ ID NO: 20) (open circles), seed-purified Rs-AFP2 (SEQ ID NO: 77) (closed circles), Rs-AFP2/G9R (SEQ ID NO: 38) (squares) and Rs-AFP2/V39R (SEQ ID NO: 43) (triangles) in a medium consisting of SMF with varying concentrations of CaCl2 (panel A) and KCl (panel B).

Alternaria brassicicola = experiment: Antifungal activity in three media differing in ionic strength (Table 3)
Protocol: (§1) The antifungal activity of the G9R and V39R Rs-AFP2 isoforms was also assessed on a set of seven different phytopathogenic fungi in three media differing in ionic strength: SMF−, SMF plus 1 mM CaCl2 and 50 mM KCl, and SMF plus 5 mM CaCl2 and 50 mM KCl. The fungi tested were: Alternaria brassicicola, Ascochyta pisi, Botrytis cinerea, Fusarium culmorum, Nectria haematococca, Phoma betae and Verticillium dahliae.

Nectria haematococca = experiment: as above
Protocol: as §1

Phoma betae = experiment: as above; conditions: 72 hours
Protocol: as §1

Fusarium culmorum [3] = experiment: as above
Protocol: as §1

Ascochyta pisi = experiment: as above
Protocol: as §1

Verticillium dahliae = experiment: as above
Protocol: as §1

Botrytis cinerea = experiment: as above
Protocol: as §1

Fusarium culmorum [4] = experiment: Liquid growth inhibition assay in half strength potato dextrose broth; conditions: F culmorum
Protocol: Yeast cells transformed with either pTG3828, pMFprepro/Rs AFP2 or PMFpre/RsAFP2 were grown in selective SD medium until a saturated culture was obtained. To assess the antifungal activity of proteins secreted by the yeast cells, the supernatant of the yeast cultures was filtered (sterile 0.22 μm filter) and serially diluted in sterile water. Diluted samples (20 μl) were incubated in microtiter plate wells with 80 μl of half strength potato dextrose broth (Difco) containing spores 10^4 spores/ml) of Fusarium culmorum.
Growth of the fungi was monitored by microspectrophotometry as described by Broekaert et al (1990, FEMS Microbiol Lett, 69:55-60). Homogenates of yeast cells were prepared by spinning down 1 ml of a saturated yeast culture, suspending the cells in 200 μl of water, vortexing the cells in the presence of 0.2 g of glass beads (425-600 μm), and clearing the homogenate by centrifugation (1 min, 10000×g). Antifungal activity could only be detected in the culture medium of yeast cells transformed with pMFprepro/RsAFP2, which contained about 2 μg/ml of Rs-AFP2 equivalents. The activity of the homogenate of these cells, as well as that of culture media and cell homogenates of yeast cells transformed with pMFpre/RsAFP2 or pTG3828 transformed yeasts was below the detection limit (about 0.2 μg/ml of Rs-AFP2 equivalents).
The supernatant of 100 ml of a saturated culture of yeast transformed with pMFprepro/RsAFP2 (grown on minimal selective SD medium supplemented with 0.5% w/v of casamino acids) was centrifuged (4000 rpm, 10 min), and filtered (0.45 μm) to remove yeast cells and debris. Tris-HC1 (pH9) was added to the supernatant to a final concentration of 50 mM. The sample was loaded at a flow rate of 2 ml/min on an anion exchange chromatography column (Q-Sepharose Fast Flow, 20 ml bed volume, Pharmacia), on-line connected with a disposable reversed-phase C8 silica column (Bond Elut, 500 mg solid phase, Varian, Harbor City, USA). The antifungal activity was not retained on the Q-Sepharose matrix but bound to the C8 silica matrix. […] The latter eluate was dried in a rotating vacuum concentrator, redissolved in 0.5 ml 15% (v/v) acetonitrile containing 0.1% (v/v) TFA, and was loaded on a reversed-phase C2/C18 silica column (Pep-S, 5 μm beads, 0.4×25 cm, Pharmacia connected to a Waters 600 HPLC station pre-equilibriated with 15% acetonitrile containing 0.1% (v/v) TFA. After loading, the column was rinsed with the same buffer until the absorbance reached background level. The column was subsequently eluted with a 15 minute linear gradient from 15% to 50% acetonitrile containing 0.1% TFA at a flow rate of 1 ml/min. The eluate was monitored for proteins by on-line measurement of the absorbance at 280 nm. […] Twenty μl fractions were tested in a liquid growth inhibition assay: 20 μl samples were incubated in microtiter plate wells with 80 μl of half strength potato dextrose broth (Difco) containing 10^4 spores/ml of F culmorum; growth of the fungi was monitored by microspectrophotometry as described by Broekaert et al (1990, FEMS Microbiol Lett, 69: 55-60).
The specific antifungal activity of RPC-purified peak A material, as well as that of plant-derivable Rs-AFP2, was determined by measuring the percentage growth inhibition of F culmorum caused by serial dilutions of the protein samples. […]

[5] = SMF plus 1 mM CaCl2 and 50 mM KCl

yRs-AFP2/V39R: yeast-expressed Rs-AFP2 isoform, position 39 valine to arginine (QKLCQRPSGTWSGVCGNNNACKNQCIRLEKARHGSCNYRFPAHKCICYFPC; listed as Raphanus sativus)
RELATIVE SPECIFIC ACTIVITY (%) IN MEDIUM SMF+ (F culmorum [1]): 114%
RELATIVE SPECIFIC ACTIVITY (%) IN MEDIUM SMF− (F culmorum [1]): 74%
IC50 SMF+ (F culmorum [1]): 3.2
IC50 SMF− (F culmorum [1]; low salt medium): 4.0
antifungal activity in SMF+ relative to wild-type Rs-AFP2 (F culmorum [1]; SMF+): approximately two-fold higher
antifungal activity compared with yRs-AFP2, in words (F culmorum [1]; Table 1 tests, SMF− and SMF+): maintain their antifungal activity
effect of substitution on antifungal activity in SMF+, in words (F culmorum [1]; Table 2 tests, high salt medium): increased antifungal activity
effect of substitution on antifungal activity in SMF−, in words (F culmorum [1]; Table 2 tests, low salt medium): little effect on the antifungal activity
relative specific antifungal activity (1/IC50), FIG. 6, in words (F culmorum [1]; medium SMF+, Rs-AFP2 set at 100): particularly active
reduction of antifungal activity by cations, compared with wild-type Rs-AFP2 (F culmorum [2]; FIG. 7): less reduced by the presence of cations
activity in the presence of 100 mM KCl (F culmorum [2]; SMF with 100 mM KCl, FIG. 7, 10 μg/ml): fully inhibitory
growth inhibition in the presence of 5mM CaCl2 (F culmorum [2]; protein 10 μg/ml, SMF with 5mM CaCl2): complete inhibition
IC50 VALUES, A brassicicola, SMF + 1 mM CaCl2/50 mM KCl (Alternaria brassicicola; 72 hours): 50 µg/mL
IC50 VALUES, A brassicicola, SMF + 5 mM CaCl2/50 mM KCl (Alternaria brassicicola; 72 hours): >100 µg/mL
IC50 VALUES, A brassicicola, SMF (Alternaria brassicicola; SMF−, 72 hours): 2.5 µg/mL
activity against A brassicola compared with Rs-AFP2, in words (Alternaria brassicicola; Table 3 data): comparable to the activity of Rs-AFP2
IC50 VALUES, N haematococca, SMF + 1 mM CaCl2/50 mM KCl (Nectria haematococca; 72 hours): 9.0 µg/mL
IC50 VALUES, N haematococca, SMF + 5 mM CaCl2/50 mM KCl (Nectria haematococca; 72 hours): 62.0 µg/mL
fold activity relative to Rs-AFP2 against N haematococca (Nectria haematococca; [5]): five-fold more active
IC50 VALUES, N haematococca, SMF (Nectria haematococca; SMF−, 72 hours): 2.1 µg/mL
IC50 VALUES, P betae, SMF + 1 mM CaCl2/50 mM KCl (Phoma betae): 40.0 µg/mL
IC50 VALUES, P betae, SMF + 5 mM CaCl2/50 mM KCl (Phoma betae): 70.0 µg/mL
IC50 VALUES, P betae, SMF (Phoma betae; SMF−): 1.4 µg/mL
IC50 VALUES, F culmorum, SMF + 1 mM CaCl2/50 mM KCl (Fusarium culmorum [3]; 96 hours): 2.3 µg/mL
IC50 VALUES, F culmorum, SMF + 5 mM CaCl2/50 mM KCl (Fusarium culmorum [3]; 96 hours): 7.0 µg/mL
fold activity relative to Rs-AFP2 against F culmorum (Fusarium culmorum [3]; [5]): approximately two-fold more active
IC50 VALUES, F culmorum, SMF (Fusarium culmorum [3]; SMF−, 96 hours): 2.2 µg/mL
IC50 VALUES, A pisi, SMF + 1 mM CaCl2/50 mM KCl (Ascochyta pisi; 72 hours): >50 µg/mL
IC50 VALUES, A pisi, SMF + 5 mM CaCl2/50 mM KCl (Ascochyta pisi; 72 hours): >100 µg/mL
IC50 VALUES, A pisi, SMF (Ascochyta pisi; SMF−, 72 hours): 2.0 µg/mL
activity against A pisi compared with Rs-AFP2, in words (Ascochyta pisi; Table 3 data): comparable to the activity of Rs-AFP2
IC50 VALUES, V dahliae, SMF + 1 mM CaCl2/50 mM KCl (Verticillium dahliae; 96 hours): 2.3 µg/mL
IC50 VALUES, V dahliae, SMF + 5 mM CaCl2/50 mM KCl (Verticillium dahliae; 96 hours): 6.0 µg/mL
fold activity relative to Rs-AFP2 against V dahliae (Verticillium dahliae; [5]): five-fold more active
IC50 VALUES, V dahliae, SMF (Verticillium dahliae; SMF−, 96 hours): 0.4 µg/mL
IC50 VALUES, B cinerea, SMF + 1 mM CaCl2/50 mM KCl (Botrytis cinerea; 72 hours): >50 µg/mL
IC50 VALUES, B cinerea, SMF + 5 mM CaCl2/50 mM KCl (Botrytis cinerea; 72 hours): >100 µg/mL
IC50 VALUES, B cinerea, SMF (Botrytis cinerea; SMF−, 72 hours): 1.6 µg/mL
activity against B cinerea compared with Rs-AFP2, in words (Botrytis cinerea; Table 3 data): comparable to the activity of Rs-AFP2

yRs-AFP2: yeast-expressed wild-type Rs-AFP2 (QKLCQRPSGTWSGVCGNNNACKNQCIRLEKARHGSCNYVFPAHKCICYFPC; listed as Raphanus sativus) [reference compound]
RELATIVE SPECIFIC ACTIVITY (%) IN MEDIUM SMF+ (F culmorum [1]): 100%
RELATIVE SPECIFIC ACTIVITY (%) IN MEDIUM SMF− (F culmorum [1]): 100%
IC50 SMF+ (F culmorum [1]): 8.5
IC50 SMF− (F culmorum [1]; low salt medium): 2.7
IC50 (concentration required for 50% growth inhibition) (Fusarium culmorum [4]; from dose-response curves of serial dilutions): about 3 μg/ml
type of inhibition (hyphal morphology) (Fusarium culmorum [4]; induction of multiple branches near the tips): characteristic morphological distortion of the fungal hyphae
